{"source": "patent US20100256109A1", "about": "“Azetidines As EP2 Antagonists” (priority 2007, published 2010)"}
{"target": "T1, recombinant human EP-2 receptor (Homo sapiens, UniProt P43116)", "T1 construct": "stably transfected with full length cDNA encoding human Prostaglandin E2; expressed in transfected cells", "T1 sequence (P43116 whole entry)": "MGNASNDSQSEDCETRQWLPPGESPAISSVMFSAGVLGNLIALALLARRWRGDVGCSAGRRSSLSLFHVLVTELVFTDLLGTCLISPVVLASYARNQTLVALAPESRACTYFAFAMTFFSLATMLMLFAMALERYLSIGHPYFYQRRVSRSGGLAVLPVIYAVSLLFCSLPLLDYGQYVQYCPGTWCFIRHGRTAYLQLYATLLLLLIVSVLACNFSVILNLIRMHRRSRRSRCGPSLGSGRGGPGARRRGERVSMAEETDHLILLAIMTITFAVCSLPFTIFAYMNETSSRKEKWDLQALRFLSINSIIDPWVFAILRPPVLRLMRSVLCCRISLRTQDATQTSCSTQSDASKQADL", "experiment": "In vitro antagonist potency against recombinant human prostaglandin E2 (EP-2) receptor in CHO cells (cAMP)", "format": "cell-based", "conditions": "CHO cells expressing recombinant human EP-2 receptor, stimulated with PGE2 5 nM; cAMP readout; Ki from IC50 by Cheng-Prusoff; read-out: EP2 Ki", "description": "1.0 Measurement of In Vitro Antagonist Potency (IC50) of Compounds Against Recombinant Human Prostaglandin E2 Receptor in CHO Cells.\nThe prostaglandin E2 (EP-2) receptor is Gs coupled and agonism of the receptor by PGE2 results in activation of intracellular adenylate cyclase enzymes that synthesise the second messenger signalling molecule, adenosine 3′,5′-cyclic monophosphate (cAMP). CHO cells expressing the recombinant human EP-2 receptor are stimulated with PGE2 (5 nM) equivalent to approximately […] values to give the maximal cAMP signal. Decreases in cAMP levels following treatment of stimulated recombinant EP-2 cells with potential antagonist compounds were measured and potency (IC50) calculated as follows.\nA Chinese hamster ovary (CHO) cell line stably transfected with full length cDNA encoding human Prostaglandin E2 was established using standard molecular biology methods. Test compounds were dissolved in dimethyl sulphoxide (DMSO) at 4 mM. 11 point half log unit increment dilution series of test compound were prepared in DMSO then diluted 1 in 40 in a buffer comprised of phosphate buffered saline (PBS) and 0.05% pluronic F-127 surfactant. Freshly cultured cells at 80-90% confluence were harvested and re-suspended in 90% growth media/10% DMSO. The cells were frozen using a planar freezer and stored in frozen aliquots in cryovials in liquid nitrogen until the day of the experiment. A vial of cells was defrosted in a 37° C. water bath for 2 min, then transferred to 10 ml of Dulbecco's Modified Eagle's Medium (DMEM). The cells were then centrifuged for 5 min at 1000 g and the pellet re-suspended at 1,000,000 cells/ml in DMEM. 5,000 cells (5 ul) were added to 5 ul of the compound dilution series in a 384 well assay plate and pre-incubated for 30 min at 37° C. 5 ul of agonist (15 nM PGE2 in PBS to give 5 nM FAC) was added and plates further incubated for 90 min at 37° C. The relative cAMP concentration in each well was then measured using a β-galactosidase enzyme fragment complementation method purchased in kit form as the Discoverx cAMP II kit from GE Healthcare, UK. […] Sigmoidal curves were fitted to plots of log10 inhibitor concentration vs. percent effect. IC50 estimates were determined as the concentration of test compound giving an effect half way between the bottom and top asymptotes of the sigmoidal dose response curve. Each experiment included an IC50 determination for the literature compound as a standard to track assay consistency and allow fair comparison between values obtained in different experiments. The EC50 of PGE2 is used in combination with the ligand concentration in the assay to determine Ki values for antagonist dose responses using the Cheng-Prusoff equation. Consequently an agonist dose response curve is carried out for each experiment using the same incubation as the antagonist plate.", "units": {"Ki": "nM"}}
{"compound": "O=C(c1ccc(F)cc1)N1CC(Cn2nnc(-c3cccc(Cl)c3Cl)n2)(C(=O)O)C1", "note": "[Example 39]", "Ki": 39.9}
{"compound": "O=C(c1ccc(Cl)cc1)N1CC(Cn2nnc(-c3c(F)cccc3F)n2)(C(=O)O)C1", "note": "[Example 61]", "Ki": 7.47}
{"compound": "O=C(c1ccc(F)cc1)N1CC(Cn2nnc(-c3ccc(F)c(F)c3)n2)(C(=O)O)C1", "note": "[Example 41]", "Ki": 66.8}
{"compound": "COc1cccc(NC(=O)N2CC(Cn3nnc(-c4cccc(F)c4)n3)(C(=O)O)C2)c1", "note": "[Example 68, 3-{[5-(3-fluorophenyl)-2H-tetrazol-2-yl]methyl}-1-{[(3-methoxyphenyl)amino]carbonyl}azetidine-3-carboxylic acid]", "Ki": 303}
{"compound": "Cc1ccc(C(=O)N2CC(Cn3nnc(-c4c(F)cccc4F)n3)(C(=O)O)C2)cc1", "note": "[Example 59]", "Ki": 57.9}
{"compound": "O=C(c1ccc(F)cc1)N1CC(Cn2nnc(-c3c(F)cccc3F)n2)(C(=O)O)C1", "note": "[Example 42]", "Ki": 262}
{"compound": "CCOc1ccccc1C(=O)N1CC(Cn2nnc(-c3ccccc3)n2)(C(=O)O)C1", "note": "[Example 51]", "Ki": 538}
{"compound": "COc1ccc(C(=O)N2CC(Cn3nnc(-c4ccc(OC)c(OC)c4)n3)(C(=O)O)C2)cc1", "note": "[Example 62]", "Ki": 25.2}
{"compound": "Cc1ccc(-c2nnn(CC3(C(=O)O)CN(C(=O)c4ccc(Cl)cc4)C3)n2)cc1", "note": "[Example 4]", "Ki": 1.45}
{"compound": "O=C(c1ccc(Cl)cc1)N1CC(Cn2nnc(-c3ccc(Cl)c(Cl)c3)n2)(C(=O)O)C1", "note": "[Example 9]", "Ki": 0.864}
{"compound": "O=C(c1ccc(F)cc1)N1CC(Cn2nnc(-c3ccc(Cl)cc3)n2)(C(=O)O)C1", "note": "[Example 25]", "Ki": 20}
{"compound": "O=C(c1ccc(Cl)cc1)N1CC(Cn2nnc(-c3cccc(F)c3)n2)(C(=O)O)C1", "note": "[Example 3]", "Ki": 11.1}
{"compound": "O=C(c1ccc(F)cc1)N1CC(Cn2nnc(-c3ccccc3C(F)(F)F)n2)(C(=O)O)C1", "note": "[Example 15]", "Ki": 733}
{"compound": "COc1ccc(-c2nnn(CC3(C(=O)O)CN(C(=O)c4cccc(F)c4)C3)n2)cc1OC", "note": "[Example 55]", "Ki": 453}
{"compound": "O=C(c1ccc(F)cc1)N1CC(Cn2nnc(-c3ccc(F)cc3)n2)(C(=O)O)C1", "note": "[Example 26]", "Ki": 74.8}
{"compound": "O=C(c1ccccc1)N1CC(Cn2nnc(-c3c(F)cccc3F)n2)(C(=O)O)C1", "note": "[Example 48]", "Ki": 325}
{"compound": "COc1ccc(-c2nnn(CC3(C(=O)O)CN(C(=O)c4c(F)cccc4F)C3)n2)cc1OC", "note": "[Example 64]", "Ki": 230}
{"compound": "O=C(c1ccc(F)cc1)N1CC(Cn2nnc(-c3ccc(Cl)cc3Cl)n2)(C(=O)O)C1", "note": "[Example 38]", "Ki": 27}
{"compound": "Cc1ccccc1-c1nnn(CC2(C(=O)O)CN(C(=O)c3ccc(F)cc3)C2)n1", "note": "[Example 12]", "Ki": 77.8}
{"compound": "CCc1ccccc1NC(=O)N1CC(Cn2nnc(-c3cccc(F)c3)n2)(C(=O)O)C1", "note": "[Example 69]", "Ki": 440}
{"compound": "O=C(c1ccc(F)cc1)N1CC(Cn2nnc(-c3ccc(OC(F)F)cc3)n2)(C(=O)O)C1", "note": "[Example 30]", "Ki": 14.7}
{"compound": "O=C(Nc1cccc(F)c1)N1CC(Cn2nnc(-c3ccc(Cl)s3)n2)(C(=O)O)C1", "note": "[Example 71]", "Ki": 519}
{"compound": "O=C(c1ccc(F)cc1)N1CC(Cn2nnc(-c3cccc(Oc4ccccc4)c3)n2)(C(=O)O)C1", "note": "[Example 21]", "Ki": 141}
{"compound": "CCOc1ccccc1C(=O)N1CC(Cn2nnc(-c3ccc(C(F)(F)F)cc3)n2)(C(=O)O)C1", "note": "[Example 53]", "Ki": 32.5}
{"compound": "COc1cc(OC)cc(C(=O)N2CC(Cn3nnc(-c4c(F)cccc4F)n3)(C(=O)O)C2)c1", "note": "[Example 65]", "Ki": 230}
{"compound": "O=C(c1ccc(Cl)cc1)N1CC(Cn2nnc(-c3cccc(Cl)c3)n2)(C(=O)O)C1", "note": "[Example 2]", "Ki": 3.51}
{"compound": "O=C(c1ccc(Cl)cc1)N1CC(Cn2nnc(-c3cc(Cl)cc(Cl)c3)n2)(C(=O)O)C1", "note": "[Example 10]", "Ki": 1.02}
{"compound": "O=C(c1ccc(F)cc1)N1CC(Cn2nnc(-c3ccccc3Cl)n2)(C(=O)O)C1", "note": "[Example 14]", "Ki": 220}
{"compound": "O=C(c1ccc(F)cc1)N1CC(Cn2nnc(-c3cc(F)cc(Cl)c3)n2)(C(=O)O)C1", "note": "[Example 43]", "Ki": 13.7}
{"compound": "O=C(c1ccc(F)cc1)N1CC(Cn2nnc(-c3ccccc3F)n2)(C(=O)O)C1", "note": "[Example 13]", "Ki": 87.3}
{"compound": "O=C(c1ccc(Cl)cc1)N1CC(Cn2nnc(-c3ccc(Cl)cc3)n2)(C(=O)O)C1", "note": "[Example 6]", "Ki": 2.42}
{"compound": "COc1cccc(C(=O)N2CC(Cn3nnc(-c4ccc(C(C)(C)C)cc4)n3)(C(=O)O)C2)c1", "note": "[Example 56]", "Ki": 176}
{"compound": "COc1cccc(C(=O)N2CC(Cn3nnc(-c4ccc(OC)c(OC)c4)n3)(C(=O)O)C2)c1", "note": "[Example 58]", "Ki": 76.3}
{"compound": "O=C(c1ccc(F)cc1)N1CC(Cn2nnc(-c3cc(C(F)(F)F)cc(C(F)(F)F)c3)n2)(C(=O)O)C1", "note": "[Example 44]", "Ki": 133}
{"compound": "CCc1ccc(-c2nnn(CC3(C(=O)O)CN(C(=O)c4ccc(F)cc4)C3)n2)cc1", "note": "[Example 23]", "Ki": 1.37}
{"compound": "O=C(Nc1cccc(Cl)c1Cl)N1CC(Cn2nnc(-c3ccccc3)n2)(C(=O)O)C1", "note": "[Example 67, 1-{[(2,3-dichlorophenyl)amino]carbonyl}-3-[(5-phenyl-2H-tetrazol-2-yl)methyl]azetidine-3-carboxylic acid]", "Ki": 130}
{"compound": "COc1cc(OC)cc(C(=O)N2CC(Cn3nnc(-c4ccc(OC)c(OC)c4)n3)(C(=O)O)C2)c1", "note": "[Example 66]", "Ki": 222}
{"compound": "O=C(Nc1cccc(Cl)c1)N1CC(Cn2nnc(-c3cccc(F)c3)n2)(C(=O)O)C1", "note": "[Example 70]", "Ki": 386}
{"compound": "COc1cc(OC)cc(C(=O)N2CC(Cn3nnc(-c4ccc(C(F)(F)F)cc4)n3)(C(=O)O)C2)c1", "note": "[Example 46, 1-(3,5-Dimethoxybenzoyl)-3-({5-[4-(trifluoromethyl)phenyl]-2H-tetrazol-2-yl}methyl)azetidine-3-carboxylic acid]", "Ki": 44.9}
{"compound": "O=C(c1ccc(Cl)cc1)N1CC(Cn2nnc(Cc3ccc(C(F)(F)F)cc3)n2)(C(=O)O)C1", "note": "[Example 60]", "Ki": 645}
{"compound": "CCC(=O)Nc1ccc(-c2nnn(CC3(C(=O)O)CN(C(=O)c4ccc(Cl)cc4)C3)n2)cc1", "note": "[Example 7]", "Ki": 0.816}
{"compound": "O=C(c1ccccc1)N1CC(Cn2nnc(-c3ccc(Cl)s3)n2)(C(=O)O)C1", "note": "[Example 50]", "Ki": 61.4}
{"compound": "COc1ccccc1-c1nnn(CC2(C(=O)O)CN(C(=O)c3ccc(F)cc3)C2)n1", "note": "[Example 16]", "Ki": 442}
{"compound": "COc1ccc(-c2nnn(CC3(C(=O)O)CN(C(=O)c4ccccc4)C3)n2)cc1OC", "note": "[Example 49]", "Ki": 41.9}
{"compound": "CCOc1ccccc1C(=O)N1CC(Cn2nnc(Cc3c(F)cccc3Cl)n2)(C(=O)O)C1", "note": "[Example 54]", "Ki": 783}
{"compound": "O=C(c1ccccc1)N1CC(Cn2nnc(-c3ccccc3)n2)(C(=O)O)C1", "note": "[Example 1, 1-Benzoyl-3-[(5-phenyl-2H-tetrazol-2-yl)methyl]azetidine-3-carboxylic acid]", "Ki": 225}
{"compound": "COc1ccc(-c2nnn(CC3(C(=O)O)CN(C(=O)c4ccc(F)cc4)C3)n2)cc1", "note": "[Example 28]", "Ki": 10.8}
{"compound": "CCOc1ccccc1C(=O)N1CC(Cn2nnc(-c3cccc(F)c3)n2)(C(=O)O)C1", "note": "[Example 52]", "Ki": 446}
{"compound": "O=C(c1c(F)cccc1F)N1CC(Cn2nnc(Cc3ccc(C(F)(F)F)cc3)n2)(C(=O)O)C1", "note": "[Example 63]", "Ki": 1960}
{"compound": "CCC(=O)Nc1ccc(-c2nnn(CC3(C(=O)O)CN(C(=O)c4ccc(F)cc4)C3)n2)cc1", "note": "[Example 32]", "Ki": 10.3}
{"compound": "O=C(c1ccc(Cl)cc1)N1CC(Cn2nnc(-c3ccc(C(F)(F)F)cc3)n2)(C(=O)O)C1", "note": "[Example 5]", "Ki": 1.64}
{"compound": "Cc1cccc(-c2nnn(CC3(C(=O)O)CN(C(=O)c4ccc(F)cc4)C3)n2)c1", "note": "[Example 17]", "Ki": 14.8}
{"compound": "O=C(c1ccccc1)N1CC(Cn2nnc(-c3cccc(F)c3)n2)(C(=O)O)C1", "note": "[Example 47]", "Ki": 152}
{"compound": "COc1cccc(C(=O)N2CC(Cn3nnc(Cc4c(F)cccc4Cl)n3)(C(=O)O)C2)c1", "note": "[Example 57]", "Ki": 959}
{"compound": "COc1cccc(-c2nnn(CC3(C(=O)O)CN(C(=O)c4ccc(F)cc4)C3)n2)c1", "note": "[Example 20]", "Ki": 11.6}
{"compound": "Cc1ccc(-c2nnn(CC3(C(=O)O)CN(C(=O)c4ccc(Cl)cc4)C3)n2)cc1Cl", "note": "[Example 8]", "Ki": 0.423}
